Experimental data from US8569342B2, “Diastereomers of 4-aryloxy-3-hydroxypiperidines” (Brentwood Equities, Ltd., priority 2003, dated 2013).
Read-outs that look alike come from different tables or passages of the source.

Columns and labels:
human 5-HT1A receptor = biological target: T1, human 5-HT1A receptor (Homo sapiens, UniProt P08908); experiment: 5-HT1A receptor binding assay; settings: for inhibition at 0.1 µM: 100 nM compound, 0.5 nM [3H]-8-OH-DPAT, 60 minutes at 22° C., CHO cells, read-out: % inhibition of control specific at 100 nM conc.
T1 construct: expressed in transfected cells; host or cells: CHO cells
T1 sequence (P08908 1-422): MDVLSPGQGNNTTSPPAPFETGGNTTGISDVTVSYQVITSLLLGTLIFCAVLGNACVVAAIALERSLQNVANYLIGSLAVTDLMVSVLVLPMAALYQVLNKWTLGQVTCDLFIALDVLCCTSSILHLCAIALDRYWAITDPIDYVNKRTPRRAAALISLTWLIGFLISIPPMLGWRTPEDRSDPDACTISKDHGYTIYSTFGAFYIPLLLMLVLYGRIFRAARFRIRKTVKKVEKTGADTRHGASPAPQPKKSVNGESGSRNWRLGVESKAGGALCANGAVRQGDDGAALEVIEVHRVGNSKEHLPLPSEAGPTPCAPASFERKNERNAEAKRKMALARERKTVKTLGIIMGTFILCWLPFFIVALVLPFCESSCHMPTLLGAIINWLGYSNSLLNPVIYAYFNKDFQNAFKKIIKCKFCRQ
Procedure: (§1) 5-HT receptor binding assays were performed according to the method well known in the art. See for example Mulerhorn et al. J. Biol. Chem. 269 (1994) 12954-12962, Bonhaus et al. (1995) et al. J. Biol. Chem. 269 (1994) 12954-12962 herein incorporated by reference in its entirety. See also U.S. Pat. Nos. 5,126,363; 5,688,807; 5,786,157; and 5,869,691 herein incorporated by reference in their entirety.
(§2) Briefly, CHO cells expressing human 5-HT receptor subtypes, or membranes prepared therefrom, were incubated with a specific radioactive ligand for 60 minutes at 22° C. (0.5 nM of [^3H]-8-OH-DPAT for 5-HT1A receptors, 1.2 nM of [^3H]-LSD for 5-HT2B receptors). Incubations were performed in the presence or absence of one of the following diastereomers: 10 μM 8-OH-DPAT; 100 nM (3S,4R)-4-(2,3-dimethylphenyl)-3-hydroxypiperidine; 100 nM (3R,4S)-4-(2,3-dimethylphenyl)-3-hydroxypiperidine; 100 nM (3R,4R)-4-(2,3-dimethylphenyl)-3-hydroxypiperidine; 100 nM (3S,4S)-4-(2,3-dimethylphenyl)-3-hydroxypiperidine. Following incubation the cells or membranes were washed recovered and the radioactivity content of the filter used to determine specific receptor binding and inhibition by the essential pure diastereomers.

5-HT4C = 5-HT4C receptor binding assay; set-up: species or system human; settings: for % inhibition of control specific at 100 nM conc.: 100 nM compound
Procedure: as §1, §2

5-HT2c = 5-HT2c (Homo sapiens, UniProt P28335); experiment: 5-HT2c receptor binding assay; settings: for inhibition at 0.1 µM: 100 nM compound, read-out: % inhibition of control specific at 100 nM conc.
human 5-HT2B receptor = human 5-HT2B receptor (Homo sapiens, UniProt P41595); experiment: 5-HT2B receptor binding assay; settings: for inhibition at 0.1 µM: 100 nM compound, 1.2 nM [3H]-LSD, 60 minutes at 22° C., CHO cells, read-out: % inhibition of control specific at 100 nM conc.
Procedure: as §1, §2

5-HT3 = 5-HT3 (Homo sapiens, UniProt P46098); experiment: 5-HT3 receptor binding assay; settings: for inhibition at 0.1 µM: 100 nM compound, read-out: % inhibition of control specific at 100 nM conc.
NE uptake = NE uptake (Homo sapiens, UniProt P23975); experiment: NE uptake binding assay; settings: for inhibition at 0.1 µM: 100 nM compound, read-out: % inhibition of control specific at 100 nM conc.
5-HT7 = biological target: T2, 5-HT7 (Homo sapiens, UniProt P34969); experiment: 5-HT7 receptor binding assay; settings: for inhibition at 0.1 µM: 100 nM compound, read-out: % inhibition of control specific at 100 nM conc.
T2 construct: expressed in transfected cells; host or cells: CHO cells

[1] = system: muscarinic acetylcholine receptors; settings: in vitro; Waldmeier; cited from earlier work
opiate receptors = settings: in vitro; Waldmeier; cited from earlier work
[2] = system: 5-HT uptake processes in the periphery (blood platelets); settings: Delini-Stula et al.; cited from earlier work
beta-noradrenoceptors = settings: in vitro; Waldmeier; cited from earlier work
GABAA receptors = settings: in vitro; Waldmeier; cited from earlier work
5-HT2 receptors [3] = settings: Waldmeier, cited from earlier work
5-HT2 receptors [4] = settings: in vivo; Waldmeier; cited from earlier work
alpha2-noradrenoceptors = settings: in vitro; Waldmeier; cited from earlier work
doparine receptors = settings: in vivo; Waldmeier; cited from earlier work
alpha1-noradrenoceptors = settings: in vitro; Waldmeier; cited from earlier work
histamine H1 receptors = settings: in vitro; Waldmeier; cited from earlier work
benzodiazepine receptors = settings: in vitro; Waldmeier; cited from earlier work
5-HT1 receptors = settings: Waldmeier, cited from earlier work
[5] = system: 5-HT reuptake in the brain; settings: Delini-Stula et al.; cited from earlier work

5-HT2c, sequence (P28335 33-458): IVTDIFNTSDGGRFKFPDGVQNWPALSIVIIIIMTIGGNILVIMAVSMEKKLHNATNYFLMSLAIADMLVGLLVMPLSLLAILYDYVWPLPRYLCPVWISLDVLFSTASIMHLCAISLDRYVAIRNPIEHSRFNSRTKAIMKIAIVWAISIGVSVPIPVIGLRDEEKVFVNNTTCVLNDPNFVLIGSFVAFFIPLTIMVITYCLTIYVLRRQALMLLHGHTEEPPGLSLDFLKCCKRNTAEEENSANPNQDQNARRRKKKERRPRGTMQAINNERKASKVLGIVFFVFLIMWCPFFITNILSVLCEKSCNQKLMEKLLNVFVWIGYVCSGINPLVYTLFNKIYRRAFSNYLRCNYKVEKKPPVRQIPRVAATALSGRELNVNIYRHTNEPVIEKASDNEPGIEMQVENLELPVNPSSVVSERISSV
human 5-HT2B receptor, sequence (P41595 whole entry): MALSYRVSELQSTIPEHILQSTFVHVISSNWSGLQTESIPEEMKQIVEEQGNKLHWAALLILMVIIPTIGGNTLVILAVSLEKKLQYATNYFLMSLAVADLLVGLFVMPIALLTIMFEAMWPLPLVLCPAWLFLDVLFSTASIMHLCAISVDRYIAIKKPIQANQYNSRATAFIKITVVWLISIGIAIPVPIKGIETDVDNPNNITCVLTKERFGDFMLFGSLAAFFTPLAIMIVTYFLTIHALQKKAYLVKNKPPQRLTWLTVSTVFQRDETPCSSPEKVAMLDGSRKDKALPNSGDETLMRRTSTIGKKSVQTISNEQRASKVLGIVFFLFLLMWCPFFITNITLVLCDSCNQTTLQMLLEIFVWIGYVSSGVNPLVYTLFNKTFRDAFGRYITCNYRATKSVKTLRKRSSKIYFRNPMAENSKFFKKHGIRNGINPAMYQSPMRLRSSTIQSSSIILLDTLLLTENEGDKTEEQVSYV
T2 sequence (P34969 whole entry): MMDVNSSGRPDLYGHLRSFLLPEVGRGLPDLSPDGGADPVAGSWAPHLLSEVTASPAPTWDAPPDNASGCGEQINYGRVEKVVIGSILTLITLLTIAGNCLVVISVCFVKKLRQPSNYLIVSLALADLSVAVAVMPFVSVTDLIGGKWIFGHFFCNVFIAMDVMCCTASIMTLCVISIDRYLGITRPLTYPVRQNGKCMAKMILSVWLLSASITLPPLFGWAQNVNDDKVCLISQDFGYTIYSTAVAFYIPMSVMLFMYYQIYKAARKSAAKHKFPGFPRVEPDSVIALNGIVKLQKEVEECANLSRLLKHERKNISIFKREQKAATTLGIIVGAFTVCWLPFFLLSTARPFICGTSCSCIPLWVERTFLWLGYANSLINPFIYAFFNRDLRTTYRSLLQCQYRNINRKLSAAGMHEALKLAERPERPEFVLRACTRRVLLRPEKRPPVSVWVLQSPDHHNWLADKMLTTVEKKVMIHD
5-HT3, sequence (P46098 24-478): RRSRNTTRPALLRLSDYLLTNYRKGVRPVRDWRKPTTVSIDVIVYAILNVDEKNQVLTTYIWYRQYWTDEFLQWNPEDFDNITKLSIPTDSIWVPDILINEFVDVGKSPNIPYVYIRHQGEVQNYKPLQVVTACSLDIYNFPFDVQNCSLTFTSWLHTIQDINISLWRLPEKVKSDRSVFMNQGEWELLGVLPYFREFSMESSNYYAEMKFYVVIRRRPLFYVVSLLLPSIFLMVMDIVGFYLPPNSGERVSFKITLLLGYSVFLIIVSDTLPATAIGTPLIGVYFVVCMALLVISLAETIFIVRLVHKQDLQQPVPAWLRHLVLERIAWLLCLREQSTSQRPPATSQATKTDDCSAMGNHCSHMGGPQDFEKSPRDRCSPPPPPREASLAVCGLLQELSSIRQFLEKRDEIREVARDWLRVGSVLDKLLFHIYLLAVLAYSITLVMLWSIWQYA
NE uptake, sequence (P23975 whole entry): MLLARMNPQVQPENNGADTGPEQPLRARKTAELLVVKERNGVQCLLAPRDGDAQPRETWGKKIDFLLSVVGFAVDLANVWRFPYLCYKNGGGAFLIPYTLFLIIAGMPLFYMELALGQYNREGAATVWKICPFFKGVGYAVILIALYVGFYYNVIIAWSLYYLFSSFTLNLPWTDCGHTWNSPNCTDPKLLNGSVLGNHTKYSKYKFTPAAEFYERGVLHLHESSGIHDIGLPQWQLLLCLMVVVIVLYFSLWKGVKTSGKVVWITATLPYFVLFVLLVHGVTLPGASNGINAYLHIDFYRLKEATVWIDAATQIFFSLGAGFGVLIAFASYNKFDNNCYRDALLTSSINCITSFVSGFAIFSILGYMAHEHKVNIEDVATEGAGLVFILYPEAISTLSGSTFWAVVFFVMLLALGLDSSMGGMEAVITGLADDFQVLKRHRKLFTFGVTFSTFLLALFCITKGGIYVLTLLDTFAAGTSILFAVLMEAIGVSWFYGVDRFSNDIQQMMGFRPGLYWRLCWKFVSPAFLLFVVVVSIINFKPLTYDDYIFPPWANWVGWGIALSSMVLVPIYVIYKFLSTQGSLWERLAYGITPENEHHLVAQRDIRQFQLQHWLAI

| inhibition at 0.1 µM (human 5-HT1A receptor) [%] | % inhibition of control specific at 100 nM conc. (5-HT4C) [%] | inhibition at 0.1 µM (5-HT2c) [%] | inhibition at 0.1 µM (human 5-HT2B receptor) [%] | inhibition at 0.1 µM (5-HT3) [%] | inhibition at 0.1 µM (NE uptake) [%] | inhibition at 0.1 µM (5-HT7) [%] | inhibition of binding to Ne (Norepinephrine) uptake receptors (in words) (NE uptake) | inhibition of binding to 5-HT7 receptors (in words) (5-HT7) | Structure (SMILES) | inhibition of binding to 5-HT1A receptors (in words) (human 5-HT1A receptor) | inhibition of binding to 5-HT2c receptors (in words) (5-HT2c) | further results |
| --- | --- | --- | --- | --- | --- | --- | --- | --- | --- | --- | --- | --- |
| 9 | 15 | -17 | 6 | 11 | 8 | 6 | inhibits binding | – | Cc1cccc(O[C@@H]2CCNC[C@@H]2O)c1C | – | – | inhibition of binding to 5-HT4c receptors (in words) (5-HT4C): inhibits binding; inhibition of binding to 5-HT3 receptors (in words) (5-HT3): inhibits binding |
| – | – | – | – | – | – | – | – | – | Cc1cccc(O[C@H]2CCNC[C@H]2O)c1C.Cc1cccc(O[C@H]2CCNC[C@H]2O)c1C.O=S(=O)(O)O (relative stereo) [ifoxetine, (+/−)-bis-[cis-3-hydroxy-4-(2,3-dimethyl-phenoxy)]-piperidine sulfate] | – | – | interaction with muscarinic acetylcholine receptors [1]: weak or no interactions; interaction with opiate receptors (opiate receptors): weak or no interactions; effect on 5-HT uptake processes in the periphery (blood platelets) [2]: without affecting; interaction with beta-noradrenoceptors (beta-noradrenoceptors): weak or no interactions; interaction with GABAA receptors (GABAA receptors): weak or no interactions; activity at 5-HT2 receptors (5-HT2 receptors [3]; 10 μM of the racemate): minimal activity; interaction with 5-HT2 receptors (5-HT2 receptors [3]; in vitro): weak or no interactions; interaction with 5-HT2 receptors (5-HT2 receptors [4]): weak or no interactions; interaction with alpha2-noradrenoceptors (alpha2-noradrenoceptors): weak or no interactions; interaction with doparine receptors (doparine receptors): weak or no interactions; interaction with alpha1-noradrenoceptors (alpha1-noradrenoceptors): weak or no interactions; interaction with histamine H1 receptors (histamine H1 receptors): weak or no interactions; interaction with benzodiazepine receptors (benzodiazepine receptors): weak or no interactions; activity at 5-HT1 receptors (5-HT1 receptors; 10 μM of the racemate): minimal activity; interaction with 5-HT1 receptors (5-HT1 receptors; in vitro): weak or no interactions; block of 5-HT reuptake in the brain [5]: specifically and selectively blocks |
| 16 | 0 | -11 | 6 | 4 | -9 | 16 | – | inhibits binding | Cc1cccc(O[C@@H]2CCNC[C@H]2O)c1C | inhibits binding | – | – |
| -8 | 5 | 7 | 6 | 5 | 4 | 22 | inhibits binding | inhibits binding | Cc1cccc(O[C@H]2CCNC[C@@H]2O)c1C | – | inhibits binding | – |

| Structure (SMILES) | inhibition at 0.1 µM (human 5-HT1A receptor) [%] | % inhibition of control specific at 100 nM conc. (5-HT4C) [%] | inhibition at 0.1 µM (5-HT2c) [%] | inhibition at 0.1 µM (human 5-HT2B receptor) [%] | inhibition at 0.1 µM (5-HT3) [%] | inhibition at 0.1 µM (NE uptake) [%] | inhibition at 0.1 µM (5-HT7) [%] | inhibition of binding to Ne (Norepinephrine) uptake receptors (in words) (NE uptake) | inhibition of binding to 5-HT7 receptors (in words) (5-HT7) | inhibition of binding to 5-HT1A receptors (in words) (human 5-HT1A receptor) | inhibition of binding to 5-HT2c receptors (in words) (5-HT2c) | further results |
| --- | --- | --- | --- | --- | --- | --- | --- | --- | --- | --- | --- | --- |
| Cc1cccc(O[C@H]2CCNC[C@H]2O)c1C | 39 | 8 | 4 | 48 | 6 | 3 | 1 | – | – | effective inhibitor of binding | effective inhibitor of binding | inhibition of binding to 5-HT2B receptors (in words) (human 5-HT2B receptor): effective inhibitor of binding |
